The structures appear in SMILES notation. Structures can show the parent of a compound that is named as a salt.

The assay has as its target T1, Human P2X7 (hP2X7) receptor (Homo sapiens, UniProt Q99572).
T1 construct: myc-His (from the pcDNA3.1/myc-HisA vector); expressed in transfected cells
T1 sequence (Q99572 1-595): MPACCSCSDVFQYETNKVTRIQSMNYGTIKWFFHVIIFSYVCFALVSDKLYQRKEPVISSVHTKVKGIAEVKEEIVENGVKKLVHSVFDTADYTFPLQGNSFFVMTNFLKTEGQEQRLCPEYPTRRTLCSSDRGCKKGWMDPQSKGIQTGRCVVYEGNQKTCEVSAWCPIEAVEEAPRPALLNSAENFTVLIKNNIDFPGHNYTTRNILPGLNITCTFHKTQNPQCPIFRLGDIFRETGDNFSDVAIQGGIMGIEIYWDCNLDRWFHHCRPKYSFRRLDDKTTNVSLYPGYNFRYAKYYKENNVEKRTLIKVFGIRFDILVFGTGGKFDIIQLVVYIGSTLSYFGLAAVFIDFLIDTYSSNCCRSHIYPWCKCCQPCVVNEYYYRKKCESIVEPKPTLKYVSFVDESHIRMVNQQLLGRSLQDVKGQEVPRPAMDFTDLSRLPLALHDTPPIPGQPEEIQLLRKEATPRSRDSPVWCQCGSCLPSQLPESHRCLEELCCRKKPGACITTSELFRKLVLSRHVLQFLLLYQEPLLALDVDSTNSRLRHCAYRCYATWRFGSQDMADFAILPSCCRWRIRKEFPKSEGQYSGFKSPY
In words: Dye assay: BzATP-induced Yo-Pro-1 uptake in HEK293 cells stably expressing hP2X7. The class given is cell-based. To be noted: BzATP (0.1 mM)-induced Yo-Pro-1 uptake, compounds 30 min pre-treatment, 90 min incubation. An excerpt:
Human P2X7 (hP2×7) was cloned from a normal human brain total RNA library by reverse transcription (using SuperScript II (Invitrogen)) and PCR (using KOD-plus-(TOYOBO)). PCR primers were designed according to hP2X7 sequence registered in GENBANK with a putative amino acid sequence consisting of 595 amino acid residues. The PCR fragments were inserted into pcDNA3.1/myc-HisA vector (Invitrogen) and sequenced for confirmation.
HEK293 cells were transfected with hP2×7/pcDNA3.1/myc-HisA by lipofection, and 1 day later, the cells were treated with 1 mg/mL G418, and resistant cells were selected by appropriately dilution. The resistant cells were cloned by reseeding at a low density.
P2X7 receptor antagonists were screened by a dye uptake assay using HEK293 cells stably expressing hP2×7. Cells were plated on a type I collagen-coated black/clear bottom 96-well plate at 20000 cells/well and a day later, treated with varying concentrations of various test compounds for 30 minutes, then treated with a dye (Yo-Pro-1) (final concentration 2 μM) and BzATP (final concentration 0.1 mM) and incubated for 90 minutes. Then, the fluorescence (indicating the BzATP-induced Yo-Pro-1 uptake mediated by the P2X7 receptor) was measured with a microplate reader (excitation wavelength: 485 nm, emission wavelength: 535 nm). The % inhibition rates were calculated and plotted against the logarithms of the concentrations to determine IC50.
On to `CC(C(=O)NCc1ccncc1)n1ncc(N[C@@H]2C[C@@H]3C[C@H]([C@H]2C)C3(C)C)c(Br)c1=O` (stereo partly drawn) [Synthetic Example 46, 2-{5-Bromo-6-oxo-4-[(1R,2R,3R,5S)-2,6,6-trimethylbicyclo[3.1.1]hept-3-ylamino]pyridazin-1(6H)-yl}-N-(pyridin-4-ylmethyl)propanamide], for which the IC50 turned out to be 14 nM.

Take `CCOc1nn(CC(=O)c2ccc(N(CC)CC)cc2)c(=O)c(Cl)c1N[C@@H]1C[C@@H]2C[C@H]([C@H]1C)C2(C)C` [Synthetic Example 140]: the half-maximal inhibitory concentration (IC50) came to 15 nM.

As to `CSc1c(N[C@@H]2C[C@@H]3C[C@H]([C@H]2C)C3(C)C)cnn(CC(=O)NCc2ccncc2)c1=O` [Synthetic Example 146], the IC50 was determined as 70 nM.

As for `Cc1c(N[C@@H]2C[C@@H]3C[C@H]([C@H]2C)C3(C)C)cnn(CC(=O)NCc2ccncc2)c1=O` [Synthetic Example 154, 2-{5-Methyl-6-oxo-4-[(1R,2R,3R,5S)-2,6,6-trimethylbicyclo[3.1.1]hept-3-ylamino]pyridazin-1(6H)-yl}-N-(pyridin-4-ylmethyl)acetamide], the half-inhibitory concentration (IC50) came to 22 nM.

As for `C[C@@H]1[C@H]2C[C@@H](C[C@H]1Nc1cnn(CC(=S)NCc3ccncc3)c(=O)c1Br)C2(C)C` [Synthetic Example 156, 2-{5-Bromo-6-oxo-4-[(1R,2R,3R,5S)-2,6,6-trimethylbicyclo[3.1.1]hept-3-ylamino]pyridazin-1(6H)-yl}-N-(pyridin-4-ylmethyl)ethanethioamide], the 50% inhibitory concentration (IC50) was 24 nM.

In the case of `C[C@@H]1[C@H]2C[C@@H](C[C@H]1Nc1cnn(CC(=O)NCc3cc[n+]([O-])cc3)c(=O)c1Br)C2(C)C` [Synthetic Example 158, 4-[(2-{5-Bromo-6-oxo-4-[(1R,2R,3R,5S)-2,6,6-trimethylbicyclo[3.1.1]hept-3-ylamino]pyridazin-1(6H)-yl}acetamido)methyl]pyridine 1-oxide], the IC50 came out at 45 nM.

In the case of `CCN(CC)c1ccc(C(Cn2ncc(N[C@@H]3C[C@@H]4C[C@H]([C@H]3C)C4(C)C)c(Br)c2=O)=NOC)cc1` [Synthetic Example 159, 4-Bromo-2-{2-[4-(diethylamino)phenyl]-2-(methoxyimino)ethyl}-5-[(1R,2R,3R,5S)-2,6,6-trimethylbicyclo[3.1.1]hept-3-ylamino]pyridazin-3(2H)-one], the IC50 came out at 77 nM.

In the case of `C[C@@H]1[C@H]2C[C@@H](C[C@H]1Nc1cnn(-c3cccc(C(=O)NCc4ccncc4)c3)c(=O)c1Br)C2(C)C` [Synthetic Example 162, 3-{5-Bromo-6-oxo-4-[(1R,2R,3R,5S)-2,6,6-trimethylbicyclo[3.1.1]hept-3-ylamino]pyridazin-1(6H)-yl}-N-(pyridin-4-ylmethyl)benzamide], the IC50 stood at 51 nM.

`C[C@@H]1[C@H]2C[C@@H](C[C@H]1Nc1cnn(CC(=O)NCc3ccncc3)c(=O)c1-c1ccncc1)C2(C)C` [Synthetic Example 379, 2-[6-Oxo-5-(pyridin-4-yl)-4-{[(1R,2R,3R,5S)-2,6,6-trimethylbicyclo[3.1.1]hept-3-yl]amino}pyridazin-1(6H)-yl]-N-(pyridin-4-ylmethyl)acetamide]: the IC50 came to 240 nM.

As to `CCC(NC(=O)Cn1ncc(NC2C[C@@H]3CC([C@H]2C)C3(C)C)c(OC(F)F)c1=O)c1ccncc1` (stereo partly drawn) [Synthetic Example 382], the half-inhibitory concentration (IC50) is 25 nM.

`CCC(NC(=O)Cn1ncc(NC2C[C@@H]3CC([C@H]2C)C3(C)C)c(OC)c1=O)c1ccncc1` (stereo partly drawn) [Synthetic Example 385]: the 50% inhibitory concentration (IC50) worked out at 39 nM.

On to `C[C@@H]1[C@H]2C[C@@H](C[C@H]1Nc1cnn(CC(=O)NCc3ccncc3)c(=O)c1C#N)C2(C)C` [Synthetic Example 387, 2-[5-Cyano-6-oxo-4-{[(1R,2R,3R,5S)-2,6,6-trimethylbicyclo[3.1.1]hept-3-yl]amino}pyridazin-1(6H)-yl]-N-(pyridin-4-ylmethyl)acetamide], for which the IC50 was 37 nM.

Turning to `C[C@@H]1[C@H]2C[C@@H](C[C@H]1Nc1c(O)nn(CC(=O)NCc3ccncc3)c(=O)c1Cl)C2(C)C` [Synthetic Example 390, 2-[5-Chloro-3-hydroxy-6-oxo-4-{[(1R,2R,3R,5S)-2,6,6-trimethylbicyclo[3.1.1]hept-3-yl]amino}pyridazin-1(6H)-yl]-N-(pyridin-4-ylmethyl)acetamide Hydrochloride], the IC50 worked out at 270 nM.

As for `C[C@@H]1[C@H]2C[C@@H](C[C@H]1Nc1cnn(Cc3ccncc3)c(=O)c1Br)C2(C)C` [Synthetic Example 394, 4-Bromo-2-(pyridin-4-ylmethyl)-5-{[(1R,2R,3R,5S)-2,6,6-trimethylbicyclo[3.1.1]hept-3-yl]amino}pyridazin-3(2H)-one], the concentration for half-maximal inhibition (IC50) turned out to be 220 nM.

For the compound `CCC(NC(=O)Cn1ncc(N[C@@H]2C[C@@H]3C[C@H]([C@H]2C)C3(C)C)c(Cl)c1=O)C(N)=O` (stereo partly drawn) [Synthetic Example 402, 2-({[5-Chloro-6-oxo-4-{[(1R,2R,3R,5S)-2,6,6-trimethylbicyclo[3.1.1]hept-3-yl]amino}pyridazin-1(6H)-yl]acetyl}amino)butanamide], the 50% inhibitory concentration (IC50) turned out to be 120 nM.

`C[C@@H]1[C@H]2C[C@@H](C[C@H]1Nc1cnn(CC(=O)NC(C(=O)O)c3ccccc3)c(=O)c1Br)C2(C)C` (stereo partly drawn) [Synthetic Example 403, ({[5-Bromo-6-oxo-4-{[(1R,2R,3R,5S)-2,6,6-trimethylbicyclo[3.1.1]hept-3-yl]amino}pyridazin-1(6H)-yl]acetyl}amino)(phenyl)acetic Acid]: the IC50 is 74 nM.

Consider `C[C@@H]1[C@H]2C[C@@H](C[C@H]1Nc1cnn(CC(=O)NC(C(N)=O)c3ccccc3)c(=O)c1Br)C2(C)C` (stereo partly drawn) [Synthetic Example 404, N-(2-Amino-2-oxo-1-phenylethyl)-2-[5-bromo-6-oxo-4-{[(1R,2R,3R,5S)-2,6,6-trimethylbicyclo[3.1.1]hept-3-yl]amino}pyridazin-1(6H)-yl]acetamide], for which the half-inhibitory concentration (IC50) was determined as 47 nM.

With `C[C@@H]1[C@H]2C[C@@H](C[C@H]1Nc1cnn(C(F)C(=O)NCc3ccncc3)c(=O)c1Br)C2(C)C` (stereo partly drawn) [Synthetic Example 405, [5-Bromo-6-oxo-4-{[(1R,2R,3R,5S)-2,6,6-trimethylbicyclo[3.1.1]hept-3-yl]amino}pyridazin-1(6H)-yl]-2-fluoro-N-(pyridin-4-ylmethyl)acetamide], the IC50 worked out at 21 nM.

`C[C@@H]1[C@H]2C[C@@H](C[C@H]1Nc1cnn(CC(=O)NCc3ccncc3)c(=O)c1C(=O)O)C2(C)C` [Synthetic Example 406, 3-Oxo-2-{2-oxo-2-[(pyridin-4-ylmethyl)amino]ethyl}-5-{[(1R,2R,3R,5S)-2,6,6-trimethylbicyclo[3.1.1]hept-3-yl]amino}-2,3-dihydropyridazine-4-carboxylic Acid]: the IC50 amounted to 40 nM.

`C[C@@H]1[C@H]2C[C@@H](C[C@H]1Nc1cnn(-c3cccc(C(=O)NCC4(O)CCCCCC4)c3)c(=O)c1Br)C2(C)C` [Synthetic Example 409, 3-[5-Bromo-6-oxo-4-{[(1R,2R,3R,5S)-2,6,6-trimethylbicyclo[3.1.1]hept-3-yl]amino}pyridazin-1(6H)-yl]-N-[(1-hydroxycycloheptyl)methyl]benzamide]: the half-maximal inhibitory concentration (IC50) was found to be 71 nM.

For the compound `C[C@@H]1[C@H]2C[C@@H](C[C@H]1Nc1cnn(CC(=O)NCc3ccncc3OCC#N)c(=O)c1Cl)C2(C)C` [Synthetic Example 415], the half-maximal inhibitory concentration (IC50) stood at 39 nM.

For the compound `C[C@@H]1[C@H]2C[C@@H](C[C@H]1Nc1cnn(C3(C(=O)NCc4ccncc4)CCC3)c(=O)c1Br)C2(C)C` [Synthetic Example 420, 1-[5-Bromo-6-oxo-4-{[(1R,2R,3R,5S)-2,6,6-trimethylbicyclo[3.1.1]hept-3-yl]amino}pyridazin-1(6H)-yl]-N-(pyridin-4-ylmethyl)cyclobutanecarboxamide], the IC50 came out at 120 nM.

On to `C[C@@H]1[C@H]2C[C@@H](C[C@H]1Nc1cnn(CC(=O)NC(CC(N)=O)c3ccncc3)c(=O)c1Br)C2(C)C` (stereo partly drawn) [Synthetic Example 428, 3-({[5-Bromo-6-oxo-4-{[(1R,2R,3R,5S)-2,6,6-trimethylbicyclo[3.1.1]hept-3-yl]amino}pyridazin-1(6H)-yl]acetyl}amino)-3-(pyridin-4-yl)propanamide], for which the IC50 came to 27 nM.

Regarding `O=C(Cn1ncc(SC23CC4CC(CC(C4)C2)C3)c(Br)c1=O)NCc1ccncc1` [Synthetic Example 430, 2-[5-Bromo-6-oxo-4-(tricyclo[3.3.1.1^3,7]dec-1-ylsulfanyl)pyridazin-1-(6H)-yl]-N-(pyridin-4-ylmethyl)acetamide], the IC50 amounted to 58 nM.

As a reminder, the IC50 is the concentration that inhibits the measured activity by half.
